Test results reported in patent US20060024691A1, “Novel pathways in the etiology of cancer” (Buck Institute for Age Research, priority 2004, published 2006).
“Also recorded” adds a separate entry of the source. Read-outs that look alike come from different tables or passages of the source. Peptide text beside a SMILES is read from it. * marks the point of attachment. Cbz = O=C(OCc1ccccc1)*

How the values were obtained:
[1] = test system: ERα Ser-118 (67 kD ERα and 52 kD ERα variant); format: cell-based, human; conditions: for Ser-118 phosphorylation of ER induced by treatment: MCF-7/T47D cells, charcoal-stripped media, 30 min, menadione 100 μM, estradiol 10 nM, other quinones at equitoxic doses
Description: (§1) Human breast cancer cell lines MCF7 and T47D were obtained from the American Type Culture Collection (ATCC). MCF7 cells were maintained in Dulbecco's Modification of Eagle's Medium (Cellgro) supplemented with 10% fetal bovine serum (Cellgro), 1% penicillin/streptomycin (Cellgro) and 10 μg/ml insulin (Sigma). T47D cells were maintained in RPMI (Cellgro) supplemented with 10% fetal bovine serum, 1% penicillin/streptomycin and 10 μg/ml insulin. Treatment conditions for both cell lines involved plating ˜1×10^6 cells in normal media onto 10 cm dishes, attachment and growth for 24 hours followed by a change to estrogen-free culture conditions (phenol red-free DME H-16 supplemented with 10% charcoal stripped serum, 1% penicillin/streptomycin and 10 μg/ml insulin) for an additional 24 hours. Cells were then treated as indicated for 30 minutes before extract preparation. Indicated conditions involved 30 minute pretreatments.
(§2) Following aspiration of the media and one ice cold PBS wash, cells growing on 10 cm dishes were harvested using a cell scraper and 0.7 ml of ice cold cell lyses buffer ([…], 1.5 mM MgCl2, […] KCl, 1 mM DTT, […] NaFl, 5% glycerol, 0.45% NP40 (Igepal, Sigma) and mincomplete protease inhibitors (Roche)). […] For preparation of high-salt nuclear extracts (nucleoplasm), isolated nuclei were resuspended for 20 minutes in ice cold extraction buffer (0.4 M NaCl, 25 mM Tris pH 7.5, 1 mM DTT, 20% glycerol, 10 mM NaFl and min-complete protease inhibitors (Roche)) followed by a 4° C. centrifugation at 16,000×g for 15 minutes.
(§3) Equal amounts of protein from the various extracts were mixed with 2× SDS sample buffer (125 mM Tris pH6.8, 20% glycerol, 2% SDS, 0.28 M 2-mercaptoethanol and0.5% Bromphenol Blue), heated for 5 minutes at 90° C. and electrophoresed on NuPAGE 4-12% Bis-Tris gels (Invitrogen) using NuPAGE MOPS SDS running buffer (Invitrogen) and full range Rainbow recombinant protein molecular weight markers (Amersham Pharmacia). […] Membranes were then blocked for 30 minutes in blocking buffer (150 mM NaCl, 20 mM Tris pH 7.5, 0.3% Tween-20 and 4% Nonfat dry milk powerby weight).

[2] = test system: ERα Ser-167 (67 kD ERα and 52 kD ERα variant); format: cell-based, human; conditions: for block of K3-induced p-Ser-167 ERα formation: MCF7 cells, co-treatment with K3
Description: as §1, §2, §3

ERK1/ERK2 = test: MAPK activation: ERK1/ERK2 phosphorylation, Western blot; format: cell-based, human; conditions: MCF7 cells; for effect on K3 induced phospho-ERK1/2 formation (MAPK activation): co-treatment with K3
Description: as §1
For preparation of high-salt nuclear extracts (nucleoplasm), isolated nuclei were resuspended for 20 minutes in ice cold extraction buffer (0.4 M NaCl, 25 mM Tris pH 7.5, 1 mM DTT, 20% glycerol, 10 mM NaFl and min-complete protease inhibitors (Roche)) followed by a 4° C. centrifugation at 16,000×g for 15 minutes.
Membranes were then blocked for 30 minutes in blocking buffer (150 mM NaCl, 20 mM Tris pH 7.5, 0.3% Tween-20 and 4% Nonfat dry milk powerby weight).

NF-κB p50 = NF-κB p50 DNA-binding (TransAM assay); format: cell-based, human; conditions: ER-positive cells, 10 μM, 30 min
Description: (§4) Quantitative p50 and p65 NFκB DNA-binding were also determined using ELISA based Trans-AMTM assays in accordance with the manufacturer's instructions (ActiveMotif; Carlsbad, Calif.). In these commercial kits, a duplexed NFκB oligonucleotide containing the same κB consensus sequence described for the EMSA assay above is attached to the surface of 96-well plates. Activated NFκB in tumor or nuclear extracts that is first bound to the attached oligonucleotide is specifically and quantitatively detected by subsequent incubation with p50 or p65 specific antibody followed by an enzyme (HRP)-linked secondary for colorimetric (OD450 nm absorbance) scoring. Standard curves to establish the linear assay range for Trans-AMTM determinations of p50 and p65 NFκB DNA-binding activities were performed using graded amounts of control (IL-1 treated) HeLa cell nuclear extracts (0.625 to 10 μg/well) and for comparison with a panel of nuclear extracts from six human breast cancer cell lines (MCF-7, T47D, BT474, MCF-7/HER2, SkBr3, MDA-231).

NF-κB p65 = NF-κB p65 DNA-binding (TransAM assay); format: cell-based, human; conditions: ER-positive cells, 10 μM, 30 min
Description: as §4

NFκB = NFκB DNA-binding by EMSA, nuclear extracts of menadione treated MCF-7 cells; format: cell-based, human; conditions: 30 min pretreatment: MG-132 25 μM, PS-341 5 μM, PDTC 100 μM, PA 50 μM; then menadione 100 μM 30 min
Description: (§5) PS-341 was kindly provided by Millennium Pharmaceuticals Inc. (Cambridge, Mass.). […] For assessment of combined treatment effects on cell viability, 2×10^4 cells (MCF-7, MCF-7/HER2, BT474) grown in 24-well plates were first treated with tamoxifen (dissolved in ethanol) and/or parthenolide (dissolved in DMSO); for the combination treatment pathenolide was added 4 h before addition of tamoxifen. Cell viability was measured 18 h after tamoxifen treatment using the sulforhodamine B (SRB) assay (Skehan, et al. 1990). Briefly, cells fixed with trichloroacetic acid were stained for 30 min with 0.4% SRB dissolved in 1% acetic acid. Unbound dye was removed by four washes with 1% acetic acid, and protein-bound dye was extracted with 10 mM unbuffered Tris base [tris(hydroxymethyl)aminomethane] for determination of optical density at 564 nm.
(§6) Fractionation of control and treated cells into cytoplasmic and nuclear extracts was performed as previously described (Dignam et al., 1983), with minor modification. Cells harvested on ice were washed twice with cold PBS, scraped and resuspended in 1.0 ml hypotonic buffer (20 mM HEPES, pH 7.0; 10 mM KCl; 1 mM MgCl2; 0.1% Triton X-100; 20% glycerol; 0.5 mM DTT) containing a cocktail of protease inhibitors (Mini CompleteTM protease inhibitors, Roche Diagnostics, Mannheim, Germany). The harvested cells were Dounce homogenized on ice, the mixture centrifuged at 3,000 rpm at 4° C. (5 min), and the cytoplasmic fraction separated from the nuclear pellet which was resuspended in elution buffer (20 mM HEPES, pH 7.0; 10 mM KCl; 1 mM MgCl2; 0.42 M NaCl; 0.1% Triton X-100; 20% glycerol; 0.5 mM DTT), supplemented with protease inhibitors. After 20 min at 4° C. the buffered mixture was centrifuged at 14,000 rpm at 4° C. (10 min) to obtain solubilized nuclear extracts which were then stored in aliquots at −80° C. after protein determination (Bradford; BioRad, Hercules, Calif.) and for subsequent NFkB DNA-binding assays.
NFκB DNA-binding activity was measured by two different techniques. Analogous to previous tumor extract scoring of Sp1 DNA-binding protein (Quong et al., 2002), total specific NFκB DNA-binding protein was determined by electrophoretic morbility shift assay (EMSA) as follows. A duplexed oligonucleotide probe (Promega, Madison, Wis.) with sense strand containing the decameric κB consensus binding sequence (underlined) 5′-[…]-3′(SEQ ID NO:4) was end-labeled with [γ-P32]ATP (PerkinElmer, Boston, Mass.) using T4 polynucleotide kinase (Promega, Madison, Wis.) and purified with G-50 Sephadex Bio-Spin columns (BioRad, Hercules, Calif.). […]

[3] = test system: p50 and p65 NFκB subunits; test: Immunoblot of nuclear p50 and p65 NFκB subunits in MCF-7 cells; format: cell-based, human; conditions: MCF-7; MG-132 25 μM, PS-341 5 μM, PDTC 100 μM, PA 50 μM
Description: as §5, §6
Antibodies against p50 NFκB, p65 NFκB, IκB, and β-actin proteins were commercially obtained (Santa Cruz Biotechnology, Santa Cruz, Calif.; and Abcam Inc., Cambridge, Mass.). […]; 4% SDS; 20% glycerol; and 10% 2-mercaptoethanol) and resolved by electrophoresis in 4-12% Bis-Tris SDS gradient gels in morpholinepropane sulfonic acid (MOPS) buffer. Separated proteins were transferred onto polyvinylidene difluoride membranes (Millipore Co., Billerica, Mass.), blocked with 5% non-fat milk in PBS containing 0.1% Tween-20, and membranes immunoblotted with the indicated antibodies in blocking solution. […]

MCF-7 cells = conditions: 5-7 days, concentrations approaching 1000 nM; cited from earlier work
MCF-7/HER2 cells = conditions: 5-7 days, concentrations approaching 1000 nM; cited from earlier work
BT474 cells = conditions: 5-7 days, concentrations approaching 1000 nM; cited from earlier work

For C[C@]12CC[C@@H]3c4ccc(O)c(O)c4CC[C@H]3[C@@H]1CCC2=O [4-OHE, 4-hydroxyestrone], the “Ser-118 phosphorylation of ER induced by treatment” value (“Ser-118 phosphorylation” below) [1] was “induced Ser-118 and Ser-167 phosphorylation of the 52 kD ERα nuclear variant”, the “Ser-167 phosphorylation of ERα induced by treatment” value ([2]; MCF7 nuclear extracts, 30 min) was “induced Ser-118 and Ser-167 phosphorylation of the 52 kD ERα nuclear variant” and the “ERK1/ERK2 phosphorylation induced by treatment” value (ERK1/ERK2; 30 minutes) was “phosphorylating ERK1/2”.
For COC1=C(OC)C(=O)c2ccccc2C1=O [DMNQ], the “Ser-118 phosphorylation” value [1] was “no Ser˜118 phosphorylation”.
In the case of CC(C)C[C@@H](C=O)NC(=O)[C@H](CC(C)C)NC(=O)[C@H](CC(C)C)NC(=O)OCc1ccccc1 [MG-132] (Cbz-Leu-Leu-Leu-aldehyde), the “decrease in the DNA-binding of p50 subunit” value (NF-κB p50) is reported as 60%, the “decrease in the DNA-binding of p65 subunit” value (NF-κB p65) is reported as 60% and the “inhibition of menadione-induced NFκB DNA-binding / activation” value (NFκB) is reported as “complete inhibition; also recorded: completely inhibited”. The “nuclear p50 and p65 NFκB subunit content, inhibitor pretreatment before menadione” value [3] was “marked reductions”.
For CC(=O)N[C@@H](CS)C(=O)O [NAC, N-acetyl cysteine], the “block of K3-induced p-Ser-167 ERα formation” value [2] was “blocked”, the “block of K3-induced p-Ser-167 ERα formation” value ([2]; listed as N-acetyl cysteine) was “effectively block” and the “effect on K3 induced phospho-ERK1/2 formation (MAPK activation)” value (“effect” for short) (ERK1/ERK2) was “blocked; also recorded: completely block”. For the same compound, the “effect” value (ERK1/ERK2; listed as N-acetyl cysteine) was “without inhibiting MAPK activity”.
For S=C(S)N1CCCC1 [PDTC, pyrrolidine dithiocarbamate], the “inhibition of menadione-induced NFκB DNA-binding / activation” value (NFκB) was “complete inhibition” and the “nuclear p50 and p65 NFκB subunit content, inhibitor pretreatment before menadione” value [3] was “marked reductions”.
With CC(C)C[C@H](NC(=O)[C@H](Cc1ccccc1)NC(=O)c1cnccn1)B(O)O [PS-341] the “inhibition of menadione-induced NFκB DNA-binding / activation” value (NFκB) was “complete inhibition; also recorded: completely inhibited” and the “nuclear p50 and p65 NFκB subunit content, inhibitor pretreatment before menadione” value [3] was “marked reductions”.
With C[S+]([O-])c1ccc(-c2nc(-c3ccncc3)c(-c3ccc(F)cc3)[nH]2)cc1 (stereo not drawn) [SB203580] the “block of K3-induced p-Ser-167 ERα formation” value [2] was “no affect”.
With N#CC(=C(/N)Sc1ccccc1N)/C(C#N)=C(\N)Sc1ccccc1N [U0126] the “effect” value (ERK1/ERK2) was “only minimal activation detectable”.
In the case of O=c1oc2ccccc2c(O)c1Cc1c(O)c2ccccc2oc1=O [dicumarol], the “inhibition of K3-induced p-Ser-118 ERα” value ([1]; MCF7 cells, dicumarol added concurrently with K3) is reported as “at least 75%” and the “block of K3-induced p-Ser-167 ERα formation” value [2] is reported as “virtually complete inhibition; also recorded: effectively block”.
For O=C1C=CC(=O)C=C1 [p-benzoquinone], the “Ser-118 phosphorylation” value [1] was “no Ser˜118 phosphorylation”.
In the case of CC/C(=C(\c1ccccc1)c1ccc(OCCN(C)C)cc1)c1ccccc1 [tamoxifen, [Z]-1-[p-dimethylaminoethoxyphenyl]-1,2-diphenyl-1 butene], the “reduction in viable cell number” value (MCF-7 cells) is given as about 50%, the “cellular reductions (viable cell number)” value (MCF-7/HER2 cells) is given as about 25% and the “cellular reductions (viable cell number)” value (BT474 cells) is given as about 25%.
